The source of these data is patent US10238688B2, “Combination therapies for bladder cancer” (GENEDIA BIOTECH CO. LTD., priority 2015, dated 2019).

Holding throughout (assay type): in vivo, BALB/C male nude mice
Assay [1] concerns UM-UC-3 derived tumor xenografts. Put plainly: UM-UC-3 tumor xenograft growth in nude mice. Here is the method: (§1) Each experiment was performed three times. All animals were adult BALB/C male nude mice of 8-12 weeks of age and experiments were performed in accordance with the National Institutes of Health Guide for the Care and Use of Laboratory Animals and approved by the animal research committee of Harbin Medical University, China.
(§2) Cells (1×10^6-7th/100 μL) embedded in BD Matrigel™ Matrix were subcutaneously injected at three sites in the back of each mouse (3-4 mice per treatment). On day 7-12th following cell injection, the animals were treated with the different drugs by an intraperitoneal injection, which was repeated every three days. Tumor volumes were monitored/calculated using the equation V=W^2L×0.5 (where W and L represent the […] tumor diameters (mm)) and then plotted. The tumor mass mice were weighed, fixed/sliced for immunohistochemistry after sacrificing the animals.
(§3) Two sets of tumor xenograft/nude mice studies were carried out. The in vivo study involves […]. Both mean±S.D of tumor volume and mass were calculated. […]
(§4) This example then compared the in vivo anticancer activity of EH/Ci/Mi regimen with its mono- and bi-drug counterparts on the 5637, UM-UC-3, or Biu87 cells derived tumor xenografts in nude mice. […] The tumor volumes were measured once every three days and were normalized by the volume on day 7. […]

Assay [2] concerns 5637 derived tumor xenografts. Briefly: 5637 tumor xenograft growth in nude mice. Here is the method:
as §1, §2, §3, §4

For assay [3], the system named is Biu87 derived tumor xenografts. Put plainly: Biu87 tumor xenograft growth in nude mice. Here is the method:
as §1, §2, §3, §4

Assay [4] has as its system Ki67-positive cells in tumor xenografts. Put plainly: Ki67 immunohistochemistry of tumor xenografts. To be noted: relative to PBS controls; day 28. Here is the method: (§5) Immunostaining was performed on 5 μm slices of formalin fixed paraffin-embedded tumor xenografts using antibodies from Gene Tech Company (Shanghai, China) against both Ki67 and CD34. Pictures were taken by LEICA DM 4000B microscope and the relative level of each protein was calculated using LEICA software. The relative staining per antibody (in percentage) in the […] tumors was calculated and plotted.
(§6) This example then compared the in vivo anticancer activity of EH/Ci/Mi regimen with its mono- and bi-drug counterparts on the 5637, UM-UC-3, or Biu87 cells derived tumor xenografts in nude mice. Since there is no established conversion rule for the drug dose in cell culture to in nude mice, this example used 75 μg per mouse for the mono-drug treatments and 25 μg per drug per mouse for both bi-drug and tri-drug combinations, based on the maximum tolerated drug dose recommended for these drugs. To minimize the inter-mouse bias's effect on tumor growth, three different BCa cell line-derived tumor xenografts were individually established subcutaneously on the back of the twelve mice (FIG. 5A). […] The tumor volumes were measured once every three days and were normalized by the volume on day 7. […]

Assay [5] relates to CD34 positive vascular structures in tumor xenografts. Put plainly: CD34 immunohistochemistry of tumor xenografts. Particulars: relative to PBS controls; day 28. Here is the method: as §5, §6

Turning to `N.N.[Cl][Pt][Cl]` [Ci, (SP-4-2)-diamminedichloroplatinum(II)], the relative tumor weight in assay [1] (UM-UC-3 derived tumor, day 28, tri-drug group taken as 1) is on record as 3.37; in assay [2] (5637 derived tumor, day 28, tri-drug group taken as 1) it was 1.79; in assay [3] (Biu87 derived tumor, day 28, tri-drug group taken as 1), 1.48. The “increase in tumor volume on day 28th (relative tumor volume)” value turned out to be 10.58 in assay [1] (UM-UC-3 xenograft, normalized by volume on day 7, i.p. at three-day interval, 75 μg per mouse mono-drug, 25 μg per drug per mouse combinations) and 4.95 in assay [3] (Biu87 xenograft, normalized by volume on day 7, i.p. at three-day interval, 75 μg per mouse mono-drug, 25 μg per drug per mouse combinations). Moreover, the relative tumor volume in assay [2] (5637 xenograft, normalized by volume on day 7, i.p. at three-day interval, 75 μg per mouse mono-drug, 25 μg per drug per mouse combinations) is listed as 6.2. Further, the “percentage of Ki67-positive cells in tumor xenografts” value in assay [4] is “reduced”. The “numbers of CD34 positive vascular structures in tumor xenografts” value in assay [5] is reported as “reduced”.
